Where “and” joins values, the source holds several entries; their conditions need not be identical. Identical values can stand only once. Like-named read-outs stand apart in the source and are kept apart here. No end group written: not given here.

This is an account of results in US20140243210A1, “PURIFICATION OF IMMUNOGLOBULINS USING AFFINITY CHROMATOGRAPHY AND PEPTIDE LIGANDS” (priority 2005, published 2014).

For one assay, the system named is intact HIgG. As to the kind of experiment: Secondary screening, batch format, competitive and non-competitive modes. Format: binding, human. To be noted: for Competitive condition, Bound / Competitive condition, Unbound / Non-competitive, Bound / Non-competitive, Unbound: second round; for Competitive condition, Bound / Competitive condition, Unbound: HIgG in MEM, radiolabel extent 2.9%; for Bound %, HIgG, Competitive / Bound %, HIgG, Non-competitive (Micro-BCA): first round; for Bound %, HIgG, Competitive: 14C-HIgG 1 μM spiked in MEM (10% FCS, 5% TPB), radiolabel extent 3.6%; for Bound %, HIgG, Non-competitive (Micro-BCA): pure HIgG 1 μM in PBS; for Non-competitive, Bound / Non-competitive, Unbound: HIgG in PBS.

The subject of a further assay is HIgG. The experiment in a line: Adsorption isotherm measurements, Langmuir model. Format: binding, human.
Assay [1] concerns Fc fragment of human IgG (HIgG). As to the kind of experiment: Secondary screening, batch format, competitive and non-competitive modes. To be noted: first round; for Bound %, Fc fragment, Non-competitive: 14C-Fc 1 μM in PBS; for Bound %, Fc fragment, Competitive: 14C-Fc 1 μM spiked in MEM (10% FCS, 5% TPB). In kind it is binding.
Procedure: (§1) The batch format was used in both competitive and non-competitive modes. The non-competitive mode involved screening using only pure target proteins in PBS buffer. For the competitive mode, target proteins were spiked into mammalian culture medium MEM (Minimum Essential Medium) containing 10% fetal calf serum (FCS) and 5% tryptose phosphate broth (TPB).
(§2) Two target proteins, the Fc fragment of human IgG (HIgG) and intact HIgG, were applied at a concentration of 1 μM. To carry out the secondary screening, 20 mg of the re-synthesized resins were swelled with 20% methanol for one hour, then washed thoroughly and equilibrated with PBS buffer. The beads were incubated with 400 μl of 1 μM 14C-Fc or 14C-IgG in the corresponding solutions in a 0.5 ml centrifuge filter with a 0.45 μm Durapore membrane (Millipore, Milford, Mass.) on a rotating plate for two hours. The particles were washed with PBS buffer for 15 min, and then sequentially washed for one hour each with 400 of: 1 M NaCl in PBS, then 2% acetic acid (AcOH) and 6 M guanidine chloride (GdnHCl). After centrifugation each solution was collected into scintillation fluid for radioactivity counting. The total unbound protein was determined by combining the counts of unbound protein and the wash of PBS. Finally, resins were suspended in scintillation liquid and counted for radioactivity in the same manner, allowing a total radioactivity balance.
The test system of a further assay is IgG. To be noted: cited from earlier work.
[2] abbreviates: Table 6, direct Langmuir fit, 0.1 meq/g, PBS pH 7.4.
The mark [3] stands for this setting: substitution 0.080 mmol/g, read-out: Kd.
[4] abbreviates: direct Langmuir fit, PBS pH 7.4, room temperature, peptides 0.1 meq/g, read-out: Kd, Langmuir.
Setting [5] is: direct Langmuir fit, PBS pH 7.4, peptides 0.1 meq/g.
[6] abbreviates: double reciprocal curve, PBS pH 7.4, room temperature, peptides 0.1 meq/g, read-out: Kd, DR curve.
The mark [7] stands for this setting: double reciprocal curve, PBS pH 7.4, peptides 0.1 meq/g.

Procedure for intact HIgG: as §1, §2

On to “HYIDAK (not fully specified (C-terminus)) [hexapeptide ligand on Toyopearl resin]”, for which, in the assay with intact HIgG, the “Competitive condition, Bound” value came to 8.64% and the “Competitive condition, Unbound” value was found to be 91.36%.
Turning to “HIQLDG (not fully specified (C-terminus)) [hexapeptide ligand on Toyopearl resin]”, in the assay on intact HIgG, the “Competitive condition, Bound” value is reported as 10.03% and the “Competitive condition, Unbound” value was determined as 89.97%.
Consider “truncation of the subunit GFRKYLHFRRHLL of a multiple antigenic peptide (MAP) (Immunoglobulin binding peptide sequence)”, for which, in the assay with intact HIgG, the “Competitive condition, Unbound” value is 59.13%. For the same substance, the qm in the assay on HIgG (setting [2]) worked out at 157.9 mg/g.
Consider “KLQWVH (Immunoglobulin binding peptide sequence) [from KLQMVX, with the substitution of M with W and X with H]”, for which, in the assay on intact HIgG, the “Competitive condition, Bound” value was found to be 12.15% and the “Competitive condition, Unbound” value was 87.85%.
In general, Kd refers to the equilibrium constant for the complex coming apart. Consider “HWRGWV [Ac-HWRGWV, acetylated HWRGWV on resin, 0.080 mmol/g]”, for which the qm in the assay with HIgG (substitution 0.080 mmol/g) was 130 mg/g and 130.8 mg/g. Besides, the equilibrium dissociation constant (Kd) on HIgG (setting [3]) is 3.8 µM.
In the case of “HANGFL (not fully specified (C-terminus)) [hexapeptide ligand on Toyopearl resin]”, in the assay on intact HIgG, the “Bound %, HIgG, Competitive” value was 5.58% and the “Bound %, HIgG, Non-competitive (Micro-BCA)” value was 10.52%. Further, in assay [1], the “Bound %, Fc fragment, Non-competitive” value is reported as 10.23% and the “Bound %, Fc fragment, Competitive” value was 25.64%.
For the substance “HYGLGW (not fully specified (C-terminus)) [hexapeptide ligand on Toyopearl resin]”, in the assay with intact HIgG, the “Bound %, HIgG, Competitive” value is 14.48% and the “Bound %, HIgG, Non-competitive (Micro-BCA)” value was 17.89%. Moreover, in assay [1], the “Bound %, Fc fragment, Non-competitive” value was found to be 19.75% and the “Bound %, Fc fragment, Competitive” value was determined as 4.91%.
As to “HPWYVT (not fully specified (C-terminus)) [hexapeptide ligand on Toyopearl resin]”, in the assay on intact HIgG, the “Competitive condition, Bound” value worked out at 26.96% and the “Competitive condition, Unbound” value is given as 73.04%.
On to “HEILYW (not fully specified (C-terminus)) [hexapeptide ligand on Toyopearl resin]”, for which, in the assay with intact HIgG, the “Bound %, HIgG, Competitive” value is listed as 5.50% and the “Bound %, HIgG, Non-competitive (Micro-BCA)” value was determined as 9.16%. In addition, in assay [1], the “Bound %, Fc fragment, Non-competitive” value is 18.01% and the “Bound %, Fc fragment, Competitive” value was 3.20%.
For the substance “EPIHRSTLTALL (not fully specified) [literature peptide ligand on Amino-NuGel (Hoffman LaRoche)]”, in the assay with IgG (Amino-NuGel support, IgG source culture), the Capacity is given as 320 μg/g μg/g gel.
As to KGEA (not fully specified (C-terminus)), in the assay on intact HIgG, the “Competitive condition, Bound” value is 7.34%; the “Competitive condition, Unbound” value is reported as 92.66%; the “Non-competitive, Bound” value came to 6.08%; the “Non-competitive, Unbound” value stood at 93.92%.
Take (RTY)4K2KG [TG19318 (PAM)]: the Capacity in the assay on IgG (Epoxy-activated Eupergit C30N support) is 25 mg/ml mg/ml gel.
For the substance “HWRGWV [hexapeptide ligand on Toyopearl AF-amino-650 M resin; 0.1 meq/g unless another substitution is stated]”, the Kd on HIgG (setting [4]) turned out to be 1.33 µM; at HIgG (setting [6]), 2.8 µM; at HIgG (substitution 0.022 mmol/g, read-out: Kd), 30 µM; on HIgG (substitution 0.040 mmol/g, read-out: Kd), 20.3 µM; on HIgG (setting [3]), 7.25 µM; at HIgG (substitution 0.10 mmol/g (different synthesis batch), read-out: Kd), 10.4 µM. Further, the dissociation constant (Kd) at HIgG (substitution 0.22 mmol/g, read-out: Kd) was 2.58 µM; on HIgG (substitution 0.55 mmol/g, read-out: Kd), 0.947 µM. Besides, the “qm, Langmuir” value in the assay with HIgG (setting [5]) was 50.0 mg/g. Further, the “qm, DR curve” value in the assay with HIgG (setting [7]) came out at 54.8 mg/g. The qm in the assay with HIgG (substitution 0.022 mmol/g) is 158.1 mg/g; in the assay on HIgG (substitution 0.040 mmol/g), 147.8 mg/g; with HIgG (substitution 0.080 mmol/g) it was 130 mg/g and 131.8 mg/g; in the assay with HIgG (substitution 0.10 mmol/g (different synthesis batch)) it was 133.6 mg/g; with HIgG (substitution 0.22 mmol/g), 136.8 mg/g; in the assay with HIgG (substitution 0.55 mmol/g) it was 137.6 mg/g.
In the case of HIWA (not fully specified (C-terminus)), in the assay with intact HIgG, the “Competitive condition, Bound” value was 12.87%; the “Competitive condition, Unbound” value came to 87.13%; the “Non-competitive, Bound” value was found to be 7.90%; the “Non-competitive, Unbound” value is 92.10%.
In the case of “HWGPTK (not fully specified (C-terminus)) [hexapeptide ligand on Toyopearl resin]”, in the assay on intact HIgG, the “Competitive condition, Bound” value worked out at 19.93%; the “Competitive condition, Unbound” value is reported as 80.07%; the “Non-competitive, Bound” value is 14.39%; the “Non-competitive, Unbound” value amounted to 85.61%.
For the substance WHWRKR [reference compound], the dissociation constant Kd at HIgG (setting [4]) turned out to be 1.39 µM; on HIgG (setting [6]), 2.47 µM. Further, in the assay on HIgG (setting [5]), the “qm, Langmuir” value is 62.4 mg/g. Besides, the “qm, DR curve” value with HIgG (setting [7]) was 81.9 mg/g.
HRPKIF [HRPLIF]: in the assay on intact HIgG, the “Bound %, HIgG, Competitive” value was 4.51% and the “Bound %, HIgG, Non-competitive (Micro-BCA)” value is 11.20%. For the same substance, in assay [1], the “Bound %, Fc fragment, Non-competitive” value turned out to be 21.46% and the “Bound %, Fc fragment, Competitive” value is listed as 24.48%.
Take “HLKWYA (not fully specified (C-terminus)) [hexapeptide ligand on Toyopearl resin]”: in the assay with intact HIgG, the “Competitive condition, Bound” value was determined as 23.47% and the “Competitive condition, Unbound” value came to 76.53%.
Regarding “HYFKFD [hexapeptide ligand on Toyopearl resin, 0.1 meq/g]”, in the assay with intact HIgG, the “Competitive condition, Unbound” value stood at 56.74%; the “Non-competitive, Bound” value stood at 69.31%; the “Non-competitive, Unbound” value came to 30.69%. The qm in the assay with HIgG (setting [2]) is listed as 126.8 mg/g. Also, the Kd at HIgG (Table 6, direct Langmuir fit, 0.1 meq/g, PBS pH 7.4, read-out: Kd) stood at 11.4 µM.
As to “HVWQLK (not fully specified (C-terminus)) [hexapeptide ligand on Toyopearl resin]”, in the assay on intact HIgG, the “Competitive condition, Bound” value is 15.05% and the “Competitive condition, Unbound” value is 84.95%.
As to Mannosylerythritol lipid, the Capacity in the assay with IgG (Poly(2-hydroxyethyl methacrylate) support) is reported as 106 mg/g mg/g gel.
For “HFDKGF (not fully specified (C-terminus)) [hexapeptide ligand on Toyopearl resin]”, in the assay on intact HIgG, the “Bound %, HIgG, Competitive” value came to 6.01% and the “Bound %, HIgG, Non-competitive (Micro-BCA)” value was 10.66%. In assay [1], the “Bound %, Fc fragment, Non-competitive” value came to 12.95% and the “Bound %, Fc fragment, Competitive” value worked out at 4.28%.
For “HVHYYW [hexapeptide ligand on Toyopearl resin, 0.1 meq/g]”, in the assay with intact HIgG, the “Competitive condition, Unbound” value turned out to be 56.73%; the “Non-competitive, Bound” value amounted to 55.49%; the “Non-competitive, Unbound” value was 44.51%. In the assay with HIgG (setting [2]), this substance registered a qm of 129.0 mg/g.
For “KRGFYY (Immunoglobulin binding peptide sequence) [combination of KRXXXX, KXXGX and aromatic amino acids F and YY]”, in the assay with intact HIgG, the “Competitive condition, Bound” value is 17.27% and the “Competitive condition, Unbound” value is on record as 82.73%.
As to “Protein A: protein A immobilized by the CNBr method to 4% cross-linked agarose beads (Amersham Biosciences); positive control [reference compound]”, in the assay on IgG (4% cross-link agarose), the Capacity was 20 mg/ml mg/ml moist gel.
For the substance “HDVFHT (not fully specified (C-terminus)) [hexapeptide ligand on Toyopearl resin]”, in the assay with intact HIgG, the “Competitive condition, Bound” value was found to be 8.55% and the “Competitive condition, Unbound” value stood at 91.45%.
In the case of “HWIDPL (not fully specified (C-terminus)) [hexapeptide ligand on Toyopearl resin]”, in the assay with intact HIgG, the “Competitive condition, Bound” value turned out to be 19.91%; the “Competitive condition, Unbound” value worked out at 80.09%; the “Non-competitive, Bound” value is recorded as 9.03%; the “Non-competitive, Unbound” value was determined as 90.97%.
